Tested on: Respiratory Syncytial Virus
Experiment: microbe, parasite or virus in culture
Type: cell-based
Settings: human respiratory syncytial virus, 168 h; antiviral activity; protection against cytopathology caused by RSV in HeLa cells, MTT read-out seven days after infection
Procedure: The percent protection against cytopathology caused by viruses (antiviral activity or EC50) achieved by tested compounds and their cytotoxicity (CC50) are both calculated from dose-response curves.
Automated tetrazolium-based colorimetric assays were used for determination of EC50 and CC50 of test compounds. […] Subsequently, stock solutions (7.8× final test concentration) of compounds were added in 45 μl volumes to a series of triplicate wells so as to allow simultaneous evaluation of their effects on virus- and mock-infected cells. Five five-fold dilutions were made directly in the microtiter trays using a robot system. Untreated virus controls, and HeLa cell controls were included in each test. Approximately 100 TCID50 of Respiratory Syncytial Virus was added to two of the three rows in a volume of 50 μl. The same volume of medium was added to the third row to measure the cytotoxicity of the compounds at the same concentrations as those used to measure the antiviral activity. […] Finally, the absorbances were read in an eight-channel computer-controlled photometer (Multiskan MCC, Flow Laboratories) at two wavelengths (540 and 690 nm). The absorbance measured at 690 nm was automatically subtracted from the absorbance at 540 nm, so as to eliminate the effects of non-specific absorption.

In the case of Cc1ccc(CCCO)c(NCc2ccc3nc(C(N)=O)n(Cc4nc(C)ccc4O)c3c2)c1 [d-10], the EC50 is reported as 631 nM.

Reference: patent US7884215B2, “2-substituted benzimidazoles” (priority 2005, dated 2011)
